# Oligonucleotides are written 5' to 3', each unit as a sugar letter and its base; * is a phosphorothioate linkage, no mark a phosphodiester; rarer units and linkages stand in square brackets, end groups in braces. Plain capitals give the bases only. e = 2'-O-(2-methoxyethyl) (MOE); [5mC] = 5-methylcytosine; d = 2'-deoxy (DNA)
# Tested on: Human STAT3 mRNA
# Assay: Inhibition of human STAT3 mRNA levels in A549 cells, 75 nM, real-time PCR (Table 13)
# Type: cell-based
# Conditions: 75 nM oligonucleotide with LIPOFECTIN, real-time PCR PPS 199, percent inhibition relative to untreated control cells, average of 2 experiments
# Procedure, shortened: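 A549 cells at 65–75% confluency were transfected in duplicate with 75 nM oligonucleotide plus […] Lipofectin for 4–7 h at 37° C and harvested 16–24 h later. STAT3 mRNA was quantified by real-time RT-PCR with primer-probe set PPS 199 and normalized to RiboGreen total RNA. Inhibition is relative to untreated controls.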
row,Substance,% Inhib (inhibition of human STAT 3 mRNA levels) [%]
1,337332 (antisense eG*eA*eA*eG*e[5mC]*d[5mC]*d[5mC]*dT*dT*dG*d[5mC]*d[5mC]*dA*dG*d[5mC]*e[5mC]*eA*eT*eG*eT) [compound 337332],91
2,337348 (antisense eT*e[5mC]*e[5mC]*eG*eA*dA*dT*dG*d[5mC]*d[5mC]*dT*d[5mC]*d[5mC]*dT*d[5mC]*e[5mC]*eT*eT*eG*eG) [compound 337348],92
3,337333 (antisense eA*eA*eG*eG*eA*dG*dA*dA*dG*d[5mC]*d[5mC]*d[5mC]*dT*dT*dG*e[5mC]*e[5mC]*eA*eG*e[5mC]) [compound 337333],90

# Tested on: Human STAT3 mRNA
# Assay: Human STAT3 mRNA dose response in A549 cells, real-time PCR with PPS 199 (Table 20)
# Type: cell-based
# Conditions: 18.75 nM oligonucleotide, 16 hours, LIPOFECTIN, − decrease, + increase relative to untreated control cells
# Protocol: An additional dose-response experiment was preformed in A549 cells. A549 cells were treated with 18.75, 37.5, 75, or 150 nM of oligonucleotide mixed with 3 ug/mL LIPOFECTIN per 100 nM oligonucleotide as described by other examples herein. Control oligonucleotides used were ISIS 129686 (SEQ ID NO: 394) and ISIS 129690 (SEQ ID NO: 393). Untreated cells served as controls. Following 16 hours of treatment, RNA was prepared from cells for subsequent real-time PCR analysis.
# Human STAT3 mRNA expression levels were quantitated by real-time PCR using primer probe set PPS 199 and gene target quantities were normalized using Ribogreen as described in other examples herein. A “−” or “+” designation in the dose response results indicates a decrease or increase of STAT 3 mRNA expression, respectively, relative to untreated control cells.
row,Substance,Percent change of STAT3 expression in A549 cells using PPS 199 [%]
1,337332 (antisense eG*eA*eA*eG*e[5mC]*d[5mC]*d[5mC]*dT*dT*dG*d[5mC]*d[5mC]*dA*dG*d[5mC]*e[5mC]*eA*eT*eG*eT) [compound 337332],−31
2,337348 (antisense eT*e[5mC]*e[5mC]*eG*eA*dA*dT*dG*d[5mC]*d[5mC]*dT*d[5mC]*d[5mC]*dT*d[5mC]*e[5mC]*eT*eT*eG*eG) [compound 337348],−26
3,337333 (antisense eA*eA*eG*eG*eA*dG*dA*dA*dG*d[5mC]*d[5mC]*d[5mC]*dT*dT*dG*e[5mC]*e[5mC]*eA*eG*e[5mC]) [compound 337333],−8

# Same assay, conditions: 37.5 nM oligonucleotide, 16 hours, LIPOFECTIN, − decrease, + increase relative to untreated control cells
row,Substance,Percent change of STAT3 expression in A549 cells using PPS 199 [%]
1,337332 (antisense eG*eA*eA*eG*e[5mC]*d[5mC]*d[5mC]*dT*dT*dG*d[5mC]*d[5mC]*dA*dG*d[5mC]*e[5mC]*eA*eT*eG*eT) [compound 337332],−61
2,337348 (antisense eT*e[5mC]*e[5mC]*eG*eA*dA*dT*dG*d[5mC]*d[5mC]*dT*d[5mC]*d[5mC]*dT*d[5mC]*e[5mC]*eT*eT*eG*eG) [compound 337348],−43
3,337333 (antisense eA*eA*eG*eG*eA*dG*dA*dA*dG*d[5mC]*d[5mC]*d[5mC]*dT*dT*dG*e[5mC]*e[5mC]*eA*eG*e[5mC]) [compound 337333],−39

# Same assay, conditions: 75 nM oligonucleotide, 16 hours, LIPOFECTIN, − decrease, + increase relative to untreated control cells
row,Substance,Percent change of STAT3 expression in A549 cells using PPS 199 [%]
1,337332 (antisense eG*eA*eA*eG*e[5mC]*d[5mC]*d[5mC]*dT*dT*dG*d[5mC]*d[5mC]*dA*dG*d[5mC]*e[5mC]*eA*eT*eG*eT) [compound 337332],−77
2,337348 (antisense eT*e[5mC]*e[5mC]*eG*eA*dA*dT*dG*d[5mC]*d[5mC]*dT*d[5mC]*d[5mC]*dT*d[5mC]*e[5mC]*eT*eT*eG*eG) [compound 337348],−55
3,337333 (antisense eA*eA*eG*eG*eA*dG*dA*dA*dG*d[5mC]*d[5mC]*d[5mC]*dT*dT*dG*e[5mC]*e[5mC]*eA*eG*e[5mC]) [compound 337333],−59

# Same assay, conditions: 150 nM oligonucleotide, 16 hours, LIPOFECTIN, − decrease, + increase relative to untreated control cells
row,Substance,Percent change of STAT3 expression in A549 cells using PPS 199 [%]
1,337332 (antisense eG*eA*eA*eG*e[5mC]*d[5mC]*d[5mC]*dT*dT*dG*d[5mC]*d[5mC]*dA*dG*d[5mC]*e[5mC]*eA*eT*eG*eT) [compound 337332],−87
2,337348 (antisense eT*e[5mC]*e[5mC]*eG*eA*dA*dT*dG*d[5mC]*d[5mC]*dT*d[5mC]*d[5mC]*dT*d[5mC]*e[5mC]*eT*eT*eG*eG) [compound 337348],−77
3,337333 (antisense eA*eA*eG*eG*eA*dG*dA*dA*dG*d[5mC]*d[5mC]*d[5mC]*dT*dT*dG*e[5mC]*e[5mC]*eA*eG*e[5mC]) [compound 337333],−75

# From US20050074879A1, “Antisense oligonucleotide modulation of STAT3 expression” (priority 2000, published 2005)
